# Test results: US8129106B2, “Sequence-specific detection of methylation in biomolecules” (priority 2004, dated 2012)
# Like-named read-outs stand apart in the source and are kept apart here.
# How the values were obtained:
# M.HhaI [1] = biological target: T1, M.HhaI (Haemophilus parahaemolyticus, UniProt P05102); experiment: M.HhaI-catalysed coupling of biotinylated aziridine cofactors with duplex oligodeoxynucleotide I-II (anion exchange HPLC); assay type: biochemical, Haemophilus haemolyticus; conditions: for conversion of duplex I-II to coupling product (protein-DNA complex): cofactor 80 μM, duplex I-II 10 μM, M.HhaI 11 μM, 37° C., after 3 h (1), 1.5 h (2), 6.25 h (3)
# T1 sequence (P05102 whole entry): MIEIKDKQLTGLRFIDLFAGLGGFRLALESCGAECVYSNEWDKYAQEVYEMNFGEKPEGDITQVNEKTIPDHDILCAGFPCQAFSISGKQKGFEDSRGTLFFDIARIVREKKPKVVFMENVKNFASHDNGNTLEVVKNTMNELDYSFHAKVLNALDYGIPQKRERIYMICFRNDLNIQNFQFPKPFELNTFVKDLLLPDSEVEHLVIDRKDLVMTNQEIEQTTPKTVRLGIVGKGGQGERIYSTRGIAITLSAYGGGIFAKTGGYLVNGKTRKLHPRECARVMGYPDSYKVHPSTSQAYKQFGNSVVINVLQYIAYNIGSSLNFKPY
# Method: Solutions (400 μL) of aziridine cofactor 1, 2 or 3 (32 nmol, 80 μM), duplex oligodeoxynucleotide I-II (4 nmol, 10 μM) and M.HhaI (4.4 nmol, 11 μM) in buffer (10 mM Tris hydrochloride, pH 7.4, 50 mM sodium chloride, 0.05 mM ethylene-diaminetetraacetic acid and 2 mM β-mercaptoethanol) were incubated at 37° C. The progress of the coupling reactions was monitored by anion exchange HPLC (Poros 10 HQ, 10 μm, 4.6×10 mm, Applied Biosystems). Compounds were eluted with aqueous potassium chloride (0.2 M for 5 min, followed by linear gradients to 0.4 M in 5 min, to 0.6 M in 20 min and to 1 M in 5 min) in Tris hydrochloride buffer (10 mM, pH 7.6) at a flow of 4 mL/min. […] These new compounds are assigned to non-covalent protein-DNA complexes between M.HhaI and the coupling products I^1-II, I^2-II and I^3-II based on their UV absorption ratio at 260 nm and 280 nm.
# The presence and functionality of biotin groups in I^1-II, I^2-II and I^3-II were verified by addition of streptavidin. Residual aziridine cofactors 1, 2 or 3 were first removed from the labelled duplexes I^1-II, I^2-II or I^3-II by gel filtration using NAP-5 columns (Amersham Biosciences, Freiburg, Germany) according to the instructions of the supplier. Afterwards, streptavidin (25 μg) was added to the solutions (25 μL, 0.25 nmol I^1-II, I^2-II or I^3-II) and incubation was performed at 37° C. for 30 min.
# M.HhaI [2] = biological target: T1, M.HhaI; experiment: Methylation-sensitive biotinylation of linearized pUC19 plasmid DNA with M.HhaI (R.HhaI protection, streptavidin mobility shift); assay type: biochemical, Haemophilus haemolyticus; conditions: cofactor 80 μM, 37° C. for 2 h, non- vs CpG-methylated LpUC19
# Method: The reaction with aziridine cofactor 1 and M.HhaI was used to specifically detect DNA methylation of plasmid DNA (FIG. 2). Experiments were performed with R.XmnI-linearized plasmid pUC19 DNA (LpUC19). Cytosine residues within the 5′-CG-3′ DNA sequences (CpG-motives) of LpUC19 were methylated using the DNA (cytosine-5)-methyltransferase M.SssI and the natural cofactor AdoMet. Non- and CpG-methylated LpUC19 were treated with biotinylated aziridine cofactor 1 and M.HhaI, which can only alkylate the first cytosine residue within the 5′-GCGC-3′ DNA sequence if this residue is not blocked by methylation of the inner CpG-motive. The different plasmids where then analyzed by treatment with the restriction endo-nuclease R.HhaI (5′-GCGC-3′ recognition sequence) or streptavidin (tight binding to the biotin group) leading to fragmentation, no reaction or an electrophoretic mobility shift (FIG. 2A). […]
# Samples (10 μL) of unmodified (A.), methylated (B. or C.) or biotinylated (C.) LpUC19 plasmid DNA (200 ng) in buffer (10 mM Tris hydrochloride, pH 7.9, 10 mM magnesium chloride, 50 mM sodium chloride, 1 mM 1,4-dithiothreitol and 1 mg/mL bovine serum albumin) were incubated with R.HhaI (2 U) at 37° C. for 1 h. DNA fragmentation was analyzed by agarose gel electrophoresis (1% agarose gel). […]
# M.SssI = biological target: T2, M.SssI (Spiroplasma monobiae, UniProt P15840); experiment: M.SssI-catalysed coupling of aziridine cofactors with duplex oligodeoxynucleotides (anion exchange HPLC); assay type: biochemical
# T2 construct: made in house; host or cells: Escherichia coli
# T2 sequence (P15840 whole entry): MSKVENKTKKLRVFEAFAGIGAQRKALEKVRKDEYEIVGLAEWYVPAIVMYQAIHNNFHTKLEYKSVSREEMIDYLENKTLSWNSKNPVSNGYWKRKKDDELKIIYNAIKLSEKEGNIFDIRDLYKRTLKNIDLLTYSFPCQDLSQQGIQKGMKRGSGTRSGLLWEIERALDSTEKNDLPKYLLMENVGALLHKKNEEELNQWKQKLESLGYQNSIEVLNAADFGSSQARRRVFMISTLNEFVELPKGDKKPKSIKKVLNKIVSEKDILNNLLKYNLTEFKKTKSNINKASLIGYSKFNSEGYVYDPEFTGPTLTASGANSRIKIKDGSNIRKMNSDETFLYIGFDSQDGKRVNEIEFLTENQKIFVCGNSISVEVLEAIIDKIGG
# Method: M.SssI-mediated conversion of 6BAz was studied by using a duplex-oligodeoxynucleotide and purified DNA-methyl-transferase. After adjusting and optimizing the reaction conditions (pH and composition of the puffers, temperature, amount of M.SssI) 60% of a hemi-methylated duplex-oligodeoxynucleotide was labelled in a 2 h reaction. When unmethylated duplex-oligodeoxynucleotides were used, approximately 100% was labelled. These diverging results may be due to the presence of minor amounts of natural cofactor AdoMet in the enzyme preparation.
# Solutions of hemi-methylated duplex oligodeoxynucleotide I-II (1 μM, I=5′-[…]-3′ (SEQ ID NO:1), II=5′-[…]-3′ with M=5-methyl-2′-deoxycytidine (SEQ ID NO:2)) or non-methylated duplex oligodeoxynucleotide I-III (1 μM, I=5′-[…]-3′ (SEQ ID NO:1), III=5′-[…]-3′ (SEQ ID NO:3)), aziridine cofactor 3 (100 μM) and M.SssI (2 μM) in buffer (10 mM Tris hydrochloride, pH 7.4, 50 mM sodium chloride, 10 mM ethylenediaminetetraacetic acid and 2 mM dithiothreitol) were incubated at 21° C. The progress of the coupling reactions was monitored by anion exchange HPLC (Poros 10 HQ, 10 μm, 4.6×100 mm, Applied Biosystems). Compounds were eluted with aqueous potassium chloride (0.2 M for 5 min, followed by linear gradients to 0.5 M in 5 min and to 1 M in 30 min) in Tris hydrochloride buffer (10 mM, pH 7.6) supplemented with sodium azide (1 mM) at a flow of 4 mL/min.
Substance,substrate for M.HhaI (M.HhaI [1]),conversion of duplex I-II to coupling product (protein-DNA complex) (M.HhaI [1]),labelling reaction of LpUC19 plasmid DNA with M.HhaI (M.HhaI [2]),cofactor use by M.SssI (transfer onto DNA) (M.SssI),"hemi-methylated duplex-oligodeoxynucleotide labelled (M.SssI; M.SssI, 2 h reaction, optimized conditions)","unmethylated duplex-oligodeoxynucleotide labelled (M.SssI; M.SssI, optimized conditions)","conversion of non-methylated duplex I-III to protein-DNA complexes with coupling product (M.SssI; duplex I-III 1 μM, cofactor 100 μM, M.SssI 2 μM, 21° C., 3 h incubation)","conversion of starting duplex I-II to product duplex I^3-II (M.SssI; hemi-methylated duplex I-II 1 μM, cofactor 100 μM, M.SssI 2 μM, 21° C., 3 h)",cofactor use by M.SssI (transfer onto DNA) (M.SssI; listed as 6BAz)
"4-Amino-7-(5′-N-aziridinyl-5′-deoxy-β-D-ribofuranosyl)-5-[1″-(N″-biotinyl)-3″-aminoprop-1-ynyl]-7H-pyrrolo[2,3-d]pyrimidine [aziridine cofactor 2]",good substrates,almost complete conversion,,,,,,,
"4-Amino-7-(5′-N-aziridinyl-5′-deoxy-β-D-ribofuranosyl)-5-[1″-(N″-biotinyl)-3″-aminopropyl]-7H-pyrrolo[2,3-d]pyrimidine [aziridine cofactor 1]",good substrates,almost complete conversion,sequence-specific and blocked by CpG-methylation,,,,,,
5′-N-Aziridinyl-N6-[1″-(N″-biotinyl)-4″-aminobutyl]-5′-deoxyadenosine [aziridine cofactor 3],good substrates,almost complete conversion,,substrate for M.SssI,60%,approximately 100%,almost complete conversion,about 60%,aziridin-cofactor for the DNA-MTase M.SssI
